From ChEMBL document CHEMBL1201862, “PubChem BioAssay data set” (2004)
Calls of active or inactive are those of the source.

Tests used:
[1] = molecular target: T1, Endoribonuclease toxin MazF (Escherichia coli K-12, UniProt P0AE70); experiment: fluorescent RNA oligo signal without MazF, dose response, counter-screen for MazEF activator project, biochemical, fluorescence, single-stranded RNase substrate (AID 588502); type: functional
T1 sequence (P0AE70 whole entry): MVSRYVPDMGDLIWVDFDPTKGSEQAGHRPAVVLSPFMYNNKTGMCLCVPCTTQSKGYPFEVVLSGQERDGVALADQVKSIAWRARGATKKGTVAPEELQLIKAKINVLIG

[2] = molecular target: T1, Endoribonuclease toxin MazF; experiment: MazF toxin RNase activators, dose response, biochemical, fluorescence, single-stranded RNA substrate, uHTS hits (AID 588481); type: functional
[3] = molecular target: Tyrosine-protein phosphatase non-receptor type 11 (Homo sapiens, UniProt Q06124); experiment: SHP2 phosphatase inhibition, dose response, selectivity assay for STEP inhibitor project, biochemical (AID 602367); type: functional; conditions: read-out: IC50_Mean
Tyrosine-protein phosphatase non-receptor type 11, sequence (Q06124 whole entry): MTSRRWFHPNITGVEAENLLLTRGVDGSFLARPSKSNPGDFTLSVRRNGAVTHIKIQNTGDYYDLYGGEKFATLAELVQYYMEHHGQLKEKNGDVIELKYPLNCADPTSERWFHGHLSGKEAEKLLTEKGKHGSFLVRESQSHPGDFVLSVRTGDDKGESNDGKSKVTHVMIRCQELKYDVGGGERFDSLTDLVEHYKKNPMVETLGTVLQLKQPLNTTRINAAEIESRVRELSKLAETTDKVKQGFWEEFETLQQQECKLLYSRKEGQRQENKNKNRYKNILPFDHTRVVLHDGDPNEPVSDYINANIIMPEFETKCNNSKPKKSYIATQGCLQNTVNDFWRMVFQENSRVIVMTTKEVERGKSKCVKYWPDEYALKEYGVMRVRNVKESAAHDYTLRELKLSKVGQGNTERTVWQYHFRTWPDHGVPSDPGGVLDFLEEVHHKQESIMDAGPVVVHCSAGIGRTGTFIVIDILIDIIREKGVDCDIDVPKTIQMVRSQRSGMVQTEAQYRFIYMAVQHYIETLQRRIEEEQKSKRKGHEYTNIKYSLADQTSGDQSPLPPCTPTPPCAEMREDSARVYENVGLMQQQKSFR

[4] = molecular target: Tyrosine-protein phosphatase non-receptor type 5 (Homo sapiens, UniProt P54829); experiment: STEP phosphatase inhibitors, confirmation, biochemical, fluorescence intensity, uHTS hits (AID 602372); type: functional; conditions: read-out: IC50_Mean
Tyrosine-protein phosphatase non-receptor type 5, sequence (P54829 whole entry): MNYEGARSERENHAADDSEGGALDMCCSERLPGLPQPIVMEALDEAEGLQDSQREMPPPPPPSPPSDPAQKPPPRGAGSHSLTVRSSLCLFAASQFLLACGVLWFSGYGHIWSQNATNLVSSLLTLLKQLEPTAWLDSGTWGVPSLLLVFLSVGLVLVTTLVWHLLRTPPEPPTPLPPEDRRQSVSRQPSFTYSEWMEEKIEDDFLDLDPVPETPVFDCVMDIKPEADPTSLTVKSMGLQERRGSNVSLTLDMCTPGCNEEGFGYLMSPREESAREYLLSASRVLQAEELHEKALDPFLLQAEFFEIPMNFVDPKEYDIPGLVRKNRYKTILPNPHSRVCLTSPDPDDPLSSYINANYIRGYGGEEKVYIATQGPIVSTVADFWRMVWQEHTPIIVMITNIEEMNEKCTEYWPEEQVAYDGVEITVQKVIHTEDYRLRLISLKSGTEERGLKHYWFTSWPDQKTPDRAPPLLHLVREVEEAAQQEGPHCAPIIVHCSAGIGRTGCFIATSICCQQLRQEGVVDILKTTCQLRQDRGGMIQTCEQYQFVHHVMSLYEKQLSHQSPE

[5] = molecular target: Dual specificity protein phosphatase 3 (Homo sapiens, UniProt P51452); experiment: VHR phosphatase inhibition, dose response, selectivity assay for STEP inhibitor project, biochemical (AID 602374); type: functional; conditions: read-out: IC50_Mean
Dual specificity protein phosphatase 3, sequence (P51452 whole entry): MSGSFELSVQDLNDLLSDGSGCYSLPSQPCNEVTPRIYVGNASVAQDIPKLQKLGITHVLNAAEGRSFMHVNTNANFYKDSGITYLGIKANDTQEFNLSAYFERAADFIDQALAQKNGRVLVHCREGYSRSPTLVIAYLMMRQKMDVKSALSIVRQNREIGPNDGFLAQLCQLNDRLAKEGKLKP

[6] = molecular target: T2, Low molecular weight phosphotyrosine protein phosphatase (Homo sapiens, UniProt P24666); type: functional; conditions: read-out: IC50_Mean
T2 sequence (P24666 whole entry): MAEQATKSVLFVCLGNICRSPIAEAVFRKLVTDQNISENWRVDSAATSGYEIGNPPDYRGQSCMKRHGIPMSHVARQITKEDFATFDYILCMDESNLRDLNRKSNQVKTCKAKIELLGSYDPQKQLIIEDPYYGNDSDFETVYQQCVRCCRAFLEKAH

[7] = molecular target: T2, Low molecular weight phosphotyrosine protein phosphatase; type: functional; conditions: read-out: IC50_Mean; remark: listed apart in the source
[8] = ARNT/TACC3 interaction disruptors, potency, confirmation, biochemical, AlphaScreen, cherry-picked samples (AID 651703); type: functional, Homo sapiens;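 note: His-tagged ARNT PAS-B domain paired with GST-TACC3 E629A dimer coactivator fragment; potency of inhibitors that break up the complex and lower AlphaScreen signal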
[9] = molecular target: G-protein coupled receptor 55 (Homo sapiens, UniProt Q9Y2T6); experiment: GPR55 agonists via beta-arrestin recruitment, primary screen, imaging, U2OS cells, beta-arrestin-GFP redistribution (AID 1961); type: functional
G-protein coupled receptor 55, sequence (Q9Y2T6 whole entry): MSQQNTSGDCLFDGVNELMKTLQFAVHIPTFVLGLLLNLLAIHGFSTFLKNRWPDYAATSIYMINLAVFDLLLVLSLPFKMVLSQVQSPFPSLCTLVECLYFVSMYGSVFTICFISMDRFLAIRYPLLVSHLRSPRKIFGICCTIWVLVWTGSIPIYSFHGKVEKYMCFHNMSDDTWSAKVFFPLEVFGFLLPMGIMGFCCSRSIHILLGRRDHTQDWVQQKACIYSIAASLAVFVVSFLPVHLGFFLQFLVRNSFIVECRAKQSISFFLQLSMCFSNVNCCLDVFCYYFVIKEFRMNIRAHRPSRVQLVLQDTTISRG

[10] = molecular target: Potassium voltage-gated channel subfamily KQT member 2 (Rattus norvegicus, UniProt O88943); experiment: KCNQ2 potassium channel inhibitors, dose response, cell-based, automated electrophysiology, set II, rat KCNQ2 (AID 588637); type: functional
Potassium voltage-gated channel subfamily KQT member 2, sequence (O88943 whole entry): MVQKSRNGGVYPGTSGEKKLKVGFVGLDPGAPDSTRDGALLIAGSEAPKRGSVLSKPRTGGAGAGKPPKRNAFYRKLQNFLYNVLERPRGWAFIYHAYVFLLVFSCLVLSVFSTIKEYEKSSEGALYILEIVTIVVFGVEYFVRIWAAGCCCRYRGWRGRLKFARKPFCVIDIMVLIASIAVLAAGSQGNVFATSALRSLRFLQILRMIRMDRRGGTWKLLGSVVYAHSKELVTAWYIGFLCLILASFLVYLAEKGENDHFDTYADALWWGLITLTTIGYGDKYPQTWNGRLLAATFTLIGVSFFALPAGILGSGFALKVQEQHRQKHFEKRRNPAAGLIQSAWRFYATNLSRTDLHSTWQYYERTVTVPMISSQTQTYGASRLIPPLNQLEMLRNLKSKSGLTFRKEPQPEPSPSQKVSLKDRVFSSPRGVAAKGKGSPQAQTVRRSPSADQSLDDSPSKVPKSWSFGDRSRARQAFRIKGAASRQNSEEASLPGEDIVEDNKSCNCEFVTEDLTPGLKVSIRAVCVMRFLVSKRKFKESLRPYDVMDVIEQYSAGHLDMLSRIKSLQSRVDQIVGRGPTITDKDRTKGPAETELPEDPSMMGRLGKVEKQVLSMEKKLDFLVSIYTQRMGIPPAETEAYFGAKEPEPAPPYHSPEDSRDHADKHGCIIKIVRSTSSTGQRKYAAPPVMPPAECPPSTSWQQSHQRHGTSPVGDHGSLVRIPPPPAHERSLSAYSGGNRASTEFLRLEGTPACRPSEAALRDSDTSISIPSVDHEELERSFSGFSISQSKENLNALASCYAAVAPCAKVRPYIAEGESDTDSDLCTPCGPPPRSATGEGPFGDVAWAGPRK

[11] = molecular target: T3, Sentrin-specific protease 7 (Homo sapiens, UniProt Q9BQF6); type: functional;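 note: Luminescence-based dose-response confirmation of ultra-high-throughput screening hits, measuring inhibition of SENP7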
T3 sequence (Q9BQF6 whole entry): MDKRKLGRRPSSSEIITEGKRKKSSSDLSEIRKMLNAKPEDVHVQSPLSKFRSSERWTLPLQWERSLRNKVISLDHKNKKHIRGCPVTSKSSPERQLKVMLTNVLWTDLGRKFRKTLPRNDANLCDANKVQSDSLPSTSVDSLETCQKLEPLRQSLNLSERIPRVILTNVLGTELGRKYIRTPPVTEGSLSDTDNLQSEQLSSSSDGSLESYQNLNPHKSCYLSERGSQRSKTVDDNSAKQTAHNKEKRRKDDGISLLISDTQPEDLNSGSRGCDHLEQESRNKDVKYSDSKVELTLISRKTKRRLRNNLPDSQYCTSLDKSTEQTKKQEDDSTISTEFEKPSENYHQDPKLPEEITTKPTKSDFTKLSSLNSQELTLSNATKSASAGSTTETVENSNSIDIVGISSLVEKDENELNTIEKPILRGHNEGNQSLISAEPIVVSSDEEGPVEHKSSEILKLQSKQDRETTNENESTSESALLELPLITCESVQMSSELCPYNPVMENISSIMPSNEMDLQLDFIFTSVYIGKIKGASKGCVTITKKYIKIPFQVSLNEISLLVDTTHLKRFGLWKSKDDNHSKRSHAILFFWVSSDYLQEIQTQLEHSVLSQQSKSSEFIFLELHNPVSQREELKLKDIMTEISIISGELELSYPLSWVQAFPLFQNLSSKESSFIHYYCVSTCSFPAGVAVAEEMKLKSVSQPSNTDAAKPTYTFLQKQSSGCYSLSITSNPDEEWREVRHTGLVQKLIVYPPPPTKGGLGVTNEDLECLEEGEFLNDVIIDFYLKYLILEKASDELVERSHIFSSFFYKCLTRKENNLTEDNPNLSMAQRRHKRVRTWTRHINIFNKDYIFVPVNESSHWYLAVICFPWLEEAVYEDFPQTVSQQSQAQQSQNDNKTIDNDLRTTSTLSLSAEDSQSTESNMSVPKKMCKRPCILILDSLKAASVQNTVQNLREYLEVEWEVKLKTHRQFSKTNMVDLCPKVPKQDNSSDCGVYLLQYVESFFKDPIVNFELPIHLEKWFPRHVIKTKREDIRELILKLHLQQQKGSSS

[12] = molecular target: T4, Sentrin-specific protease 8 (Homo sapiens, UniProt Q96LD8); type: functional;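 note: luminescence read-out of SENP8 inhibition, dose-response confirmation following an ultra-high-throughput screen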
T4 sequence (Q96LD8 whole entry): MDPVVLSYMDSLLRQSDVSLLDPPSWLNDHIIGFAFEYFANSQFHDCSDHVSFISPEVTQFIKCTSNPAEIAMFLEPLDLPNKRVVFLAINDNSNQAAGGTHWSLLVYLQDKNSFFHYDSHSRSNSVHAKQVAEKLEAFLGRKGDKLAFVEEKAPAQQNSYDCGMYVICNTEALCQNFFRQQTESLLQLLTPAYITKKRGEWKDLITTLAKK

[13] = molecular target: T5, Caspase-3 (Homo sapiens, UniProt P42574); type: functional;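 note: Dose-response selectivity test against caspase-3 for candidate inhibitors of sentrin-specific proteases (SENPs)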
T5 sequence (P42574 whole entry): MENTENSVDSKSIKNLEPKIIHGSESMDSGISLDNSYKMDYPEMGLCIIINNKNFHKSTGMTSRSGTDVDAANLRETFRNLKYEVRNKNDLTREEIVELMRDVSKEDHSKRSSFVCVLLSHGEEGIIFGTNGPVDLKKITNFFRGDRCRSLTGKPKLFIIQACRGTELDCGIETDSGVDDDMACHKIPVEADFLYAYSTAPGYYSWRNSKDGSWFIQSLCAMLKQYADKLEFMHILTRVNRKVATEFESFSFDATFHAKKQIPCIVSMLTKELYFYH

[14] = molecular target: T6, Sentrin-specific protease 6 (Homo sapiens, UniProt Q9GZR1); type: functional;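 note: Luminescence-based dose-response confirmatory assay of SENP6 inhibition, following up an ultra-high-throughput screen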
T6 sequence (Q9GZR1 whole entry): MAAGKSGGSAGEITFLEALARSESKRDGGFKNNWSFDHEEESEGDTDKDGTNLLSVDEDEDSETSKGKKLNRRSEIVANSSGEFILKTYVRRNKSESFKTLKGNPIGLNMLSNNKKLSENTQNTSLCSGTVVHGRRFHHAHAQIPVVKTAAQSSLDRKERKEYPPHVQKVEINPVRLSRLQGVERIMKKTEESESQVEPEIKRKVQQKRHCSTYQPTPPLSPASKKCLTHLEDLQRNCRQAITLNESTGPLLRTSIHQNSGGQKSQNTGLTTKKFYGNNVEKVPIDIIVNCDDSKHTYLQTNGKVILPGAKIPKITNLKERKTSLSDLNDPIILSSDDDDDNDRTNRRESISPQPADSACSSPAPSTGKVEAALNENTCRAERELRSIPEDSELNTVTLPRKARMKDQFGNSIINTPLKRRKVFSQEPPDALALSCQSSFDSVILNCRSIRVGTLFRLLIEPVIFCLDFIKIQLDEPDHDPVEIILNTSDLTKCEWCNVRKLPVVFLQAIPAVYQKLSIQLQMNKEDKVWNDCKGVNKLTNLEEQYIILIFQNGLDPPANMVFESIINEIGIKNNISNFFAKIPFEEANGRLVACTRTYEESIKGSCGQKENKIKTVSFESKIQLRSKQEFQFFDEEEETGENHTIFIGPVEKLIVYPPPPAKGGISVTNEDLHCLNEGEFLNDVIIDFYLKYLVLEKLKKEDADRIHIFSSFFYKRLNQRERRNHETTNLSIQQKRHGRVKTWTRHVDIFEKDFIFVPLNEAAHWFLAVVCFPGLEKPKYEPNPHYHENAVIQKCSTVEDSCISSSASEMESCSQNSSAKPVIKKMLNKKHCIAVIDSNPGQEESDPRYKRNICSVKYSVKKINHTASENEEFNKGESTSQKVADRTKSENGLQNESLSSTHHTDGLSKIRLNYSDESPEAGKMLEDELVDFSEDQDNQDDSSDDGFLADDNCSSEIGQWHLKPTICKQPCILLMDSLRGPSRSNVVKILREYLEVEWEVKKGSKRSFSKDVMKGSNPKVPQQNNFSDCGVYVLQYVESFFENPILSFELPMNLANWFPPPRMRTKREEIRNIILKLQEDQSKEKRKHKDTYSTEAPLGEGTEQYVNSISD

[15] = molecular target: T7, Rac GTPase-activating protein 1 (Homo sapiens, UniProt Q9H0H5); experiment: MgcRacGAP GTPase-activating activity inhibitors, confirmation, biochemical, ADP Hunter fluorescence, primary and confirmatory (AID 624330); type: functional
T7 sequence (Q9H0H5 whole entry): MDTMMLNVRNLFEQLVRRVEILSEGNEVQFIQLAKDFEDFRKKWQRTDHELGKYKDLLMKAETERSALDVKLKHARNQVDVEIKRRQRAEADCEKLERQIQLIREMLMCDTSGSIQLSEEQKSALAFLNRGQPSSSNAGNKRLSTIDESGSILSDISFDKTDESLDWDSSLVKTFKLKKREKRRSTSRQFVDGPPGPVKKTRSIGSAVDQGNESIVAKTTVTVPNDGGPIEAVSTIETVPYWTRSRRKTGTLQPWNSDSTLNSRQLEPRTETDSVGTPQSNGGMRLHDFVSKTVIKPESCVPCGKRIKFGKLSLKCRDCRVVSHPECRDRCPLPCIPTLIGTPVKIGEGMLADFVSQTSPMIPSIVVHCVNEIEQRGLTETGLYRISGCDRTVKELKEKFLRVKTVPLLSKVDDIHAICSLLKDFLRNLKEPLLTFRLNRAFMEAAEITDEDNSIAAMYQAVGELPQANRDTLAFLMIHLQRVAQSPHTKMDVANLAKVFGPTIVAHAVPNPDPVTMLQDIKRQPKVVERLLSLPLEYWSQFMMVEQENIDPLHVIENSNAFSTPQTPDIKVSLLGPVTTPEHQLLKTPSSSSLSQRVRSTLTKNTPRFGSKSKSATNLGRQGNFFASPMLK

[16] = HeLa cell cytotoxicity, dose response, cytotoxicity control for MgcRacGAP inhibitor project (AID 624300); type: functional
[17] = system: HEK293; experiment: cells; conditions: Homo sapiens
[18] = system: HEK293; experiment: cells; conditions: Homo sapiens; remark: listed apart in the source
[19] = molecular target: Benomyl/methotrexate resistance protein (Candida albicans, UniProt P28873); experiment: CaMdr1 efflux pump inhibitor potency, dose response, singleplex, Cherry Pick1 hits (AID 588608); type: functional
Benomyl/methotrexate resistance protein, sequence (P28873 whole entry): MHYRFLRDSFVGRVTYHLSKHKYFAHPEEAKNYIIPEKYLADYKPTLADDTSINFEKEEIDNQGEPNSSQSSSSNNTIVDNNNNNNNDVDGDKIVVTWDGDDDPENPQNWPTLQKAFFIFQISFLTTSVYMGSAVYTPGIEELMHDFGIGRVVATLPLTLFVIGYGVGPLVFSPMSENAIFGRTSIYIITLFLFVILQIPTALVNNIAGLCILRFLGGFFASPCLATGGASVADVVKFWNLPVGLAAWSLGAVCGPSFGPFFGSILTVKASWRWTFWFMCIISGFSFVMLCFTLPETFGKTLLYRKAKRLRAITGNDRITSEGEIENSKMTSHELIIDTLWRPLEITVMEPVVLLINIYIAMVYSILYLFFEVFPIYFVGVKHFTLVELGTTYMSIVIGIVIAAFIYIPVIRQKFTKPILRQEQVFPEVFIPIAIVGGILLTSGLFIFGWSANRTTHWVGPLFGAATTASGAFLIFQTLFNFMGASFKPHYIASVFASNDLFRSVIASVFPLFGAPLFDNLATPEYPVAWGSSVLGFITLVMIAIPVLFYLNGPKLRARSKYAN

[20] = molecular target: T8, Probable nicotinate-nucleotide adenylyltransferase (Staphylococcus aureus (strain N315), UniProt P65502); type: functional, Staphylococcus aureus subsp. aureus N315; conditions: read-out: IC50_Mean;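 for IC50 Mean: confirmatory dose-response retesting of NadD inhibitor hits first found in an ultra-high-throughput screen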
T8 sequence (P65502 whole entry): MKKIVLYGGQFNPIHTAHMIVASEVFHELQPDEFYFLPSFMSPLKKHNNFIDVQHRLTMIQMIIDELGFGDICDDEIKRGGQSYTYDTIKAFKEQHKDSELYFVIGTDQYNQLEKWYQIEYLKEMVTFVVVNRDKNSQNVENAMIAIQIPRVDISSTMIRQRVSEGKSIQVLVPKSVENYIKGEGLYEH

[21] = molecular target: T8, Probable nicotinate-nucleotide adenylyltransferase; type: functional, Staphylococcus aureus subsp. aureus N315
[22] = Fluorescence-based cell-based high throughput dose response assay for inhibitors of the interaction of nucleotide-binding oligomerization domain containing 2 (NOD2) and the receptor-interacting serine-threonine kinase 2 (RIPK2).; type: functional, Homo sapiens

Cn1c(CNc2ccc(O)cc2)nc2ccccc21
EC50 [1]: > 99 µM (inactive)
EC50 [2]: > 99 µM (inactive)

O=C(COc1ccc(/C=N/NC(=O)c2ccncc2)cc1)Nc1ccc([N+](=O)[O-])cc1
IC50 [3]: 6.08 µM (active)
IC50 [4]: > 80 µM (inactive)
IC50 [5]: 21.7 µM (inactive)

O=C(CSc1nc(-c2ccccc2)nc2ccc(F)cc12)Nc1ccc(C(=O)O)cc1
IC50 [6]: 25.9 µM (inactive)
IC50 [7]: 57.3 µM (inactive)

O=C(CSc1cccc2cccnc12)N/N=C/c1ccncc1
AC50 [8]: 110 µM (active)

CCOC(=O)N1CCC(N(CCOC)C(=O)Nc2ccc(Cl)c(Cl)c2)CC1
EC50 [9]: 2.65 µM (active)
IC50 [10]: 0.99 µM (active)

O=c1/c(=C\c2ccc3c(c2)OCO3)sc2n1CCCN=2
IC50 [11]: 12.6 µM (active)
IC50 [12]: 34.1 µM (active)
IC50 [13]: 17 µM (active)
IC50 [14]: 33.6 µM (active)

CC(=O)Nc1cccc(NC(=O)c2cccc(-c3ccc(O)cc3)c2)c1
IC50 [15]: 46.4 µM (active)
CC50 [16]: 100 µM (active)

COc1ccc(/N=c2\oc3cc(O)ccc3cc2C(=O)NCC2CCCO2)c(OC)c1 (stereo not given)
EC50 [1]: > 99 µM (inactive)
EC50 [17]: > 59.6 µM (inactive)
EC50 [2]: > 99 µM (inactive)
EC50 [18]: > 59.6 µM (inactive)

O=C1/C(=C/c2cccs2)Sc2ccccc21
IC50 [11]: 2.11 µM (active)
IC50 [12]: 2.41 µM (active)
IC50 [13]: 3.44 µM (active)
IC50 [14]: 2.36 µM (active)

O=C(CCN1C(=O)c2cccnc2C1=O)NC1CCCCCC1
AC50 [8]: 76.9 µM (active)

COCCn1c(=S)[nH]c2sc3c(c2c1=O)CCCC3
EC50 [19]: 0.012 µM (active)
IC50 [15]: 38.7 µM (active)

Cc1ccc(Cn2c(C3CCCN3c3nc(-c4cc(Cl)c(N)c(Cl)c4)cs3)nc3cc(Cl)c(Cl)cc32)cc1 (stereo not given)
IC50 [20]: 26.4 µM (active)
IC50 [21]: 11.1 µM (active)

COc1cccc(Nc2nc(-c3ccc4c(c3)OCCO4)cs2)c1
IC50 [11]: 7.97 µM (active)
IC50 [12]: 30.3 µM (active)
IC50 [13]: 40.2 µM (active)
IC50 [14]: 20.3 µM (active)

CC(=O)O[C@H]1C[C@@H]2OC3C=C(C)CCC3(C)[C@@]1(C)[C@@]21CO1 (stereo not given in full)
IC50 [22]: 49.8 µM (inactive)

CC1Oc2ccccc2N(CC(=O)N(Cc2ccccc2)Cc2ccccn2)C1=O (stereo not given)
IC50 [10]: 1 µM (active)
